Test results published in patent US4451650A, “Pyrido[4,3-b][1,4]oxazines and pyrido[4,3-b][1,4]thiazines” (Southern Research Institute, priority 1982, dated 1984).

Legend:
[1] = tested on: lymphoid leukemia L1210 cells; experiment: Inhibition of proliferation of cultured lymphoid leukemia L1210 cells (48 hours); assay type: cell-based; details: read-out: L1210 ID50 (concentration of agent that inhibits proliferation of cultured lymphoid leukemia L1210 cells to 50% control growth during 48 hours)
Protocol: ^a Concentration of agent that inhibits proliferation of cultured
lymphoid leukemia L1210 cells to 50% control growth during 48 hours
[Wheeler, G. P., Bowdon, B. J., Werline, J. A., Adamson, D. J., and
Temple, C., Jr., Cancer Research, 1982, 42, 791].

[2] = tested on: lymphoid leukemia L1210 cells; experiment: Mitotic index (fraction of cells in mitosis) of cultured lymphoid leukemia L1210 cells, 12 hours exposure; assay type: cell-based; details: Mus musculus, exposure period of 12 hours, read-out: L1210 MI0.5 (concentration of agent that causes a mitotic index of 0.5)
Protocol: ^b Concentration of agent that causes a mitotic index (fraction of
cells in mitosis divided by total cells) of 0.5 for cultured lymphoid
leukemia L1210 cells during an exposure period of 12 hours [Wheeler, G.
P., Bowden, B. J., Werline, J. A., Adamson, D. J., and Temple, C., Jr.,

[3] = tested on: Lymphocytic leukemia P388; experiment: Increase in life span, lymphocytic leukemia P388, 10^6 tumor cell implant, i.p.; assay type: in vivo; details: Mus musculus, P388, ip, schedule 1-5, read-out: P388 % ILS (increase in life span at the highest nontoxic dose)
Source text: ^c Lymphocytic leukemia P388.
^d Increase in life span at the highest nontoxic dose.

Row | Structure (SMILES) | IC50 [1] [nM] | EC (mitotic index 0.5) [2] [µM] | ILS at 300 mg/kg [3] [%] | also measured
1 | CCOC(=O)Nc1cc2c(c(N)n1)N=C(c1ccccc1)CO2 [a] | 225 | 0.56 |  | ILS at 100 mg/kg [3]: 44%; ILS at 200 mg/kg [3]: 80%
2 | CCOC(=O)Nc1cc2c(c(N)n1)N=C(c1ccccc1)C(C)O2 (stereo not shown) [b] | 110 | 0.49 |  | ILS at 100 mg/kg [3]: 50%
3 | CCOC(=O)Nc1cc2c(c(N)n1)N=C(c1ccccc1)C(c1ccccc1)O2 (stereo not shown) [c] | 880 | 3 |  | ILS at 200 mg/kg [3]: 2%
4 | CCOC(=O)Nc1cc2c(c(N)n1)N=C1c3ccccc3CCC1O2 (stereo not shown) [d] | > 300 |  | 32 | 
5 | CCOC(=O)Nc1cc2oc(=O)c(-c3ccccc3)nc2c(N)n1 [e] | > 3000 |  | 0 | 
6 | CCOC(=O)Nc1cc2c(c(N)n1)N=C(c1cccc(OC)c1)CO2 [f] | 52 | 0.1 |  | ILS at 50 mg/kg ([3]; 50 mg/kg): 73%
7 | CCOC(=O)Nc1cc2c(c(N)n1)N=C(c1cc(OC)c(OC)c(OC)c1)CO2 [g] | > 3000 |  | 0 | 
8 | CCOC(=O)Nc1cc2c(c(N)n1)N=C(c1ccc(Cl)cc1)CO2 [h] | > 3000 |  | 0 | 
9 | CCOC(=O)Nc1cc2c(c(N)n1)N=C(c1ccc([N+](=O)[O-])cc1)CO2 [i] | > 3000 |  | 0 | 
10 | CCOC(=O)Nc1cc2c(c(N)n1)N=C(c1ccccc1)CS2 [j] | 6100 | 10 | 0 | 

Continued, in another order:

Row | IC50 [1] [nM] | Structure (SMILES) | EC (mitotic index 0.5) [2] [µM] | ILS at 300 mg/kg [3] [%] | also measured
11 | 1600 | CCOC(=O)Nc1cc2c(c(N)n1)N=C(c1ccccc1)C(C)S2 (stereo not shown) [k] | 9.6 |  | ILS at 150 mg/kg ([3]; 150 mg/kg): 10%
12 | > 10000 | CCOC(=O)Nc1cc2c(c(N)n1)N=C(c1ccccc1)C(C)(C)S2 [l] |  |  | 
13 | 530 | CCOC(=O)Nc1cc2c(c(N)n1)N=C(c1cccc(OC)c1)CS2 [m] | 2 |  | ILS at 75 mg/kg ([3]; 75 mg/kg): 3%
14 | 340 | CCOC(=O)Nc1cc2c(c(N)n1)N=C(c1ccc(OC)cc1)CS2 [n] | 4.9 | 3 | 
15 | 580 | CCOC(=O)Nc1cc2c(c(N)n1)N=C(c1ccc3ccccc3c1)CS2 [o] | 3 | 5 | 
16 | 310 | CCOC(=O)Nc1cc2c(c(N=CN(C)C)n1)N=C(c1ccccc1)CO2 [p] | 0.78 |  | 
17 | 2200 | CCOC(=O)Nc1cc2c(c(NC(=O)CBr)n1)N=C(c1ccccc1)CO2 [q] | 11 |  | 
